Assay results as given in the RepoRT retention time repository (doi:10.1016/j.chroma.2015.11.014).

Assay: RP, Agilent ZORBAX Eclipse Plus C18, 150 × 2.1 mm, 3.5 µm, 40 °C, 0.3 mL/min, estimated dead time 1.1 min; A: water + 0.1% formic acid; B: acetonitrile + 0.1% formic acid; gradient (min/%B) 0/2 1/2 2/20 16.5/98 22/98
Settings: stereoisomer not certain

LC retention time [min]	Compound
5.65	CCC(CC)OC1C=C(C(=O)O)CC(N)C1NC(C)=O (centres undefined)
8.67	COC(=O)Nc1nc2ccc(C(=O)c3ccccc3)cc2[nH]1
4.66	COc1cc(N)nc(OC)n1
6.76	COCCN(C(=O)CS(=O)(=O)O)c1c(C)cccc1C
10.3	CC(=O)C1CCC2C3CCC4=CC(=O)CCC4(C)C3C(O)CC12C (centres undefined)
8.3	COC(=O)CCCC[P+](c1ccccc1)(c1ccccc1)c1ccccc1
11.9	Cc1ccc(C(C)NC(=O)C(NC(=O)OC(C)C)C(C)C)cc1 (centres undefined)
5.08	CCOC(=O)Nc1cccc(N)c1C
13	O=C(c1ccccc1)c1ccccc1O
7.36	CCN(CC)C(=O)c1cccc(C(=O)O)c1
17.7	CCCCC(CC)COC(=O)C(C#N)=C(c1ccccc1)c1ccccc1 (centres undefined)
8.2	COCCCOc1cc(CC(CC(N)C(O)CC(C(=O)NCC(C)(C)C(N)=O)C(C)C)C(C)C)ccc1OC (centres undefined)
4.47	CC(=O)Nc1ccc(O)c(O)c1
9.97	CN(C)c1ccc(C(c2ccccc2)c2ccc(N(C)C)cc2)cc1
5.37	Nc1ccc(S(=O)(=O)Nc2nccs2)cc1
5.73	CCCCCCN1C=CN(C)C1
4.53	Cc1cn(C2CC(O)C(CO)O2)c(=O)[nH]c1=O (centres undefined)
6.61	CC(O)C(=O)Nc1ccccc1 (centres undefined)
5.92	N=C(N)c1ccc(OCCCCCCOc2ccc(C(=N)N)cc2)cc1
9.97	CCC(CC)COC(=O)C(C)NP(=O)(OCC1OC(C#N)(c2ccc3c(N)ncnn23)C(O)C1O)Oc1ccccc1 (centres undefined)
5.35	C=CC[N+](CC)(CC)Cc1ccccc1
7.48	NC(=O)N1c2ccccc2C=Cc2cc(O)ccc21
10.2	CSc1nc(NC2CC2)nc(NC(C)(C)C)n1
8.59	Cc1cccc(C(=O)O)c1
12	CCCCCCCCCCCC[N+](C)(C)CCOc1ccccc1
11	O=C(c1ccccc1)c1ccc(O)cc1O
7.46	CCCCCC[N+](C)(C)Cc1ccccc1
6.66	NC(=O)N1c2ccccc2C(O)C(O)c2ccccc21 (centres undefined)

LC retention time [min]	Compound
9.22	O=C(O)c1cc(N=Nc2ccc(S(=O)(=O)Nc3ccccn3)cc2)ccc1O
5.35	CCNCC(=O)Nc1c(C)cccc1C
19	CCCCCCCCOc1ccc(C(=O)c2ccccc2)c(O)c1
8.71	CN(C)CCC=C1c2ccccc2CCc2ccccc21
3.15	O=c1[nH]cnc2[nH]ncc12
9.53	O=C1OC2(c3ccc(O)cc3Oc3cc(O)ccc32)c2ccccc21
7.67	OCCN(CCO)c1nc(N2CCCCC2)c2nc(N(CCO)CCO)nc(N3CCCCC3)c2n1
12.4	N#CSCSc1nc2ccccc2s1
4.61	CCOC(=O)c1cnc(N)nc1N
7.56	OCc1coc(-c2ccccc2)n1
6.22	Oc1ccccc1-c1nc2ccccc2[nH]1
9.03	COc1cccc(OC)c1OC
13.1	CCCCCC[N+](CCCCCC)(CCCCCC)CCCCCC
5.48	Nc1ccc(C(=O)O)c(O)c1
5.02	CC(=O)Nc1ccc(O)cc1
11.8	COc1ccc(C(=O)c2ccccc2O)c(O)c1
2.43	Cn1cnc2c(=O)[nH]c(N)nc21
11.2	CCCCCCCCCCC(C(=O)OC)[N+](C)(C)Cc1ccccc1 (centres undefined)
6.76	CC(O)C(=O)N(C)c1ccccc1 (centres undefined)
5.68	CC(=O)Nc1cccc(O)c1
11.8	CC(C(=O)O)c1cccc(Oc2ccccc2)c1 (centres undefined)
14.9	CCCCCCCCCCCCOS(=O)(=O)O
6.06	Cc1ccc(-c2nc3ccccc3[nH]2)cc1
6.17	COc1ccc2nc(SCc3[nH]cc(C)c(=O)c3C)[nH]c2c1
13.8	CC(=O)C1CCC2C3CCC4=CC(=O)CCC4(C)C3CCC12C (centres undefined)
8.23	CC(C)(c1ccc(OCC(O)CO)cc1)c1ccc(OCC(O)CO)cc1 (centres undefined)
5.39	O=c1[nH]c(=O)c2ccccc2[nH]1

Compound	LC retention time [min]
CCCN(CCC)C(=O)SCc1ccccc1	15.5
CCc1cccc(C)c1N	7.96
CCCCCCCCn1sccc1=O	11.9
O=C1CC2(CCCCC2)CO1	9.65
COC1=C(C)C(=O)C2=C(C1=O)C(COC(N)=O)C1(OC)C3NC3CN21 (centres undefined)	7.05
COCC(=O)N(c1c(C)cccc1C)C(C)C(=O)OC (centres undefined)	10.2
CC(Cc1ccc(C(C)(C)C)cc1)CN1CC(C)OC(C)C1 (centres undefined)	9.53
CCCCOP(=O)(O)OCCCC	8.01
Cc1ccc(N)cc1N	2.14
COc1ccc(C(CN(C)C)C2(O)CCCCC2)cc1 (centres undefined)	6.63
CN(C)CC1CCCCC1(O)c1cccc(O)c1 (centres undefined)	5.39
CCC1(c2cccc(O)c2)CCCCN(C)C1 (centres undefined)	5.64
COc1cccc(C2(O)CCCCC2CN(C)C)c1 (centres undefined)	6.21
CCOP(=O)(OCC)OCC	7.41
